Data set [1] can be described thus: Temperature profiling in RP-HPLC (peptide self-association). The conditions noted are these: RP-HPLC pH 2, 5° C.-77° C., maximum change in retention time relative to random coil standards. It counts as physicochemical. From the text:
Peptide self-association, the ability to oligomerize/dimerize in aqueous solution, is an important parameter that can improve antimicrobial activity while removing toxicity. The inventors hypothesize that the monomeric random-coil antimicrobial peptides in aqueous solution are best suited to pass through a polysaccharide capsule, the outer membrane lipopolysaccharide and the cell wall peptidoglycan layer of microorganisms prior to penetration into the cytoplasmic membrane, induction of alpha-helical structure and disruption of membrane structure to kill target cells. […] In the present study, the ability of the AMPs to self-associate was determined by a technique developed in the inventors' laboratory, referred to as RP-HPLC temperature profiling at pH 2 over the temperature range of 5° C. to 80° C. […]
Purified peptides were analyzed on an Agilent 1200 series liquid chromatograph for temperature profiling using a Zorbax 300 SB-C8 column (150 mm×2.1 mm I.D.; 5 μm particle size, 300 Å pore size) from Agilent Technologies. […]
FIGS. 5-8 illustrate self-association profiles of the α-helical AMP analogs as determined by temperature profiling in RP-HPLC. […]

Data set [2] in a line: Circular dichroism (CD) spectroscopy, characterization of helical structure. The conditions noted are these: for α-helical content (% helix) in aqueous conditions: aqueous benign buffer pH 7.0, 5° C.; for helical structure in hydrophobic medium containing 50% TFE: buffer pH 7.0 / 50% TFE, 5° C.; for inducible helical structure Δ[Θ]222 nm TFE-Aqueous: difference 50% TFE minus aqueous buffer. It counts as physicochemical.
Procedure: The mean residue molar ellipticities of peptides were determined by circular dichroism (CD) spectroscopy, using a Jasco J-815 spectropolarimeter (Jasco Inc. Easton, Md., USA) at 5° C. under benign (non-denaturing) conditions (50 mM NaH2PO4/Na2HPO4/100 mM KCl, pH 7.0), hereafter referred to as benign buffer, as well as in the presence of an alpha-helix inducing solvent, 2,2,2-trifluoroethanol, TFE, (50 mM NaH2PO4/Na2HPO4/100 mM KCl, pH 7.0 buffer/50% TFE). A 10-fold dilution of an approximately 500 microM stock solution of the peptide analogs was loaded into a 0.1 cm quartz cell and its ellipticity scanned from 195 to 250 nm. Peptide concentrations were determined by amino acid analysis.

In data set [3] the test system is A. baumannii compared to P. aeruginosa. The experiment in a line: Selectivity (MICGM P. aeruginosa/MICGM A. baumannii). It counts as cell-based, Acinetobacter baumannii.
The test system of a further data set is Pseudomonas aeruginosa. The experiment in a line: Antimicrobial activity against Pseudomonas aeruginosa. The data set is classed as cell-based. The method, then:
In the current study de novo designed AMPs were tested against seven diverse clinical isolates of the Gram-negative pathogen A. baumannii and seven A. baumannii strains resistant to polymyxin B and polymyxin E (Colistin). In addition, the inventors tested these AMPs against six diverse clinical isolates of the Gram-negative pathogen, P. aeruginosa, and nine Gram-positive methicillin-sensitive S. aureus clinical isolates and eight Gram-positive methicillin/oxacillin-resistant S. aureus strains. This testing allows for the determination of pathogen selectivity between Gram-negative and Gram-positive pathogens as the location of the positively charged residues on the polar face is varied.
The minimal inhibitory concentration (MIC) is defined as the lowest peptide concentration that inhibited bacterial growth. MICs were measured by a standard microtiter dilution method in Mueller Hinton (MH) medium. Briefly, cells were grown overnight at 37° C. in MH broth and were diluted in the same medium. Serial dilutions of the peptides were added to the microtiter plates in a volume of 50 microL, followed by the addition of 50 microL of bacteria to give a final inoculum of 5×10^5 colony-forming units (CFU)/mL. The plates were incubated at 37° C. for 24 h, and the MICs were determined.

In a further data set the test system is human erythrocytes. The experiment in a line: Hemolytic activity against human erythrocytes. It counts as cell-based. As to conditions: 1% human erythrocytes, 18 h, 37° C. The method, then: Peptide samples (concentrations determined by amino acid analysis) were added to 1% human erythrocytes in phosphate-buffered saline (100 mM NaCl, 80 mM Na2HPO4, 20 mM NaH2PO4, pH 7.4) and the reaction mixtures were incubated at 37° C. for 18 h in microtiter plates. Two-fold serial dilutions of the peptide samples were carried out. This determination was made by withdrawing aliquots from the hemolysis assays and removing unlysed erythrocytes by centrifugation (800×g). Hemoglobin release was determined spectrophotometrically at 570 nm. The control for 100% hemolysis was a sample of erythrocytes treated with water. The control for no release of hemoglobin was a sample of 1% erythrocytes without any peptide added. Since erythrocytes were in an isotonic medium, no detectable release (<1% of that released upon complete hemolysis) of hemoglobin was observed from this control during the assay. The hemolytic activity is generally determined as the peptide concentration that causes 50% hemolysis of erythrocytes after 18 h (HC50). HC50 was determined from a plot of percent lysis versus peptide concentration (microM). If 50% hemolysis could not be reached, the inventors used HC30 values (30% hemolysis).

Another data set has as its target D52. Nature of the data set: RP-HPLC temperature profiling 5-77 C, pH 2; self-association (monomer-dimer) of the peptide.
The next data set deals with D26 (K13A, K16A). The data set is described as above.

Square brackets hold non-standard residues; d marks the D form. Orn = NCCC[C@H](N)C(=O)O

For the molecule “Ac-ALKKLLSTLSSAKSSKLSTLLKALKK-amide (Ac-ALKKLLSTLSSAKSSKLSTLLKALKK-NH2) [D52]”, the “peptide self-association parameter PA” value in data set [1] worked out at 7.78 min. In data set [2], the “α-helical content (% helix) in aqueous conditions” value (from here on “α-helical content (% helix)”) was 13.7%, the “helical structure in hydrophobic medium containing 50% TFE” value worked out at 100% and the “inducible helical structure Δ[Θ]222 nm TFE-Aqueous” value is given as 1422.
Ac-ALKKLLSTLSSARSSRLSTLLKALKK-NH2 [D58]: in data set [2], the “α-helical content (% helix)” value came out at 7.2% and the “inducible helical structure Δ[Θ]222 nm TFE-Aqueous” value is reported as 750.
As for “Ac-ALKKLLSTLSSA[Orn]SS[Orn]LSTLLKALKK-NH2 [D56]”, in data set [2], the “α-helical content (% helix)” value was determined as 3.5% and the “helical structure in hydrophobic medium containing 50% TFE” value is 27.2%.
Turning to “Ac-AL[Orn][Orn]LLSTLSSAKSSKLSTLL[Orn]AL[Orn][Orn]-NH2 [D59]”, in data set [2], the “α-helical content (% helix)” value was determined as 6.9% and the “inducible helical structure Δ[Θ]222 nm TFE-Aqueous” value is on record as 1061.
Consider “Ac-KLKSLLKTLSKAKKKKLKTLLKALSK-NH2 [D16, reference compound]”, for which the “selectivity factor (MICGM P. aeruginosa/MICGM A. baumannii)” value in data set [3] is recorded as 2.7.
As for “Ac-KLKSLLSTLSSAAKKALSTLLSALSK-NH2 [D26 (K13A, K16A)]”, in data set [2] (50 mM potassium phosphate buffer, pH 7.0, 100 mM KCl), the “helical structure in aqueous buffer conditions (in words)” value was “α-helical”.
On to Ac-KLKSLLSTLSSAKKKKLSTLLSALSK-NH2 [D26], for which the “activity against Pseudomonas aeruginosa (in words)” value in the data set with Pseudomonas aeruginosa was “inactive”. Further, in data set [3], the “improvement in selectivity (MICGM P. aeruginosa/MICGM A. baumannii)” value came to 25 fold. For the same molecule, the “α-helical content (% helix)” value in data set [2] is listed as 8.9%. Also, the “hemolytic activity HC50” value with human erythrocytes was over 1776 µM.

B1: D52 (peptide)
chain: Ac-[dA][dL][dK][dK][dL][dL][dS][dT][dL][dS][dS][dA][dK][dS][dS][dK][dL][dS][dT][dL][dL][dK][dA][dL][dK][dK]-NH2
SMILES: CC(=O)N[C@H](C)C(=O)N[C@H](CC(C)C)C(=O)N[C@H](CCCCN)C(=O)N[C@H](CCCCN)C(=O)N[C@H](CC(C)C)C(=O)N[C@H](CC(C)C)C(=O)N[C@H](CO)C(=O)N[C@@H](C(=O)N[C@H](CC(C)C)C(=O)N[C@H](CO)C(=O)N[C@H](CO)C(=O)N[C@H](C)C(=O)N[C@H](CCCCN)C(=O)N[C@H](CO)C(=O)N[C@H](CO)C(=O)N[C@H](CCCCN)C(=O)N[C@H](CC(C)C)C(=O)N[C@H](CO)C(=O)N[C@@H](C(=O)N[C@H](CC(C)C)C(=O)N[C@H](CC(C)C)C(=O)N[C@H](CCCCN)C(=O)N[C@H](C)C(=O)N[C@H](CC(C)C)C(=O)N[C@H](CCCCN)C(=O)N[C@H](CCCCN)C(N)=O)[C@H](C)O)[C@H](C)O
As for B1, the PA (peptide self-association parameter) with D52 amounted to 7.78 min.
On to Ac-[dK][dL][dK][dS][dL][dL][dS][dT][dL][dS][dS][dA][dA][dK][dK][dA][dL][dS][dT][dL][dL][dS][dA][dL][dS][dK]-NH2 [D26 (K13A, K16A)], for which the PA (peptide self-association parameter) with D26 (K13A, K16A) was 27 min.
